The text below walks through data of patent publication US10064888B2, “Pectin based nanoparticles” (TECHNION RESEARCH & DEVELOPMENT FOUNDATION LTD., priority 2013, dated 2018).

The data set is described as follows: Residual curcumin during simulated shelf life, absorbance at 415 nm. Type of data set: physicochemical. The following applies: over a period of 11 days, with respect to time 0. As for the experimental part:
FIG. 3. Is a graph depicting the SBP protective effect. Residual percentage of curcumin (with respect to time 0) during simulated shelf life, without and with protection by SBP. Curcumin was determined by absorbance at 415 nm (maximal absorbance of curcumin) as determined by a UV-Visible light spectrophotometer.

Take `COc1cc(/C=C/C(=O)CC(=O)/C=C/c2ccc(O)c(OC)c2)ccc1O` [curcumin]: the “decrease of curcumin during simulated shelf life” value is “approximately 40%”.
